{"source": "patent US20240277767A1", "about": "“METHODS AND USES” (PROLEUKOCYTE AB, priority 2021, published 2024)", "key": {"KADA TIL": {"test_system": "KADA TIL", "assay": "Quantification of CD4+ T cells and Tregs in AUF pre-treated KADA TIL (flow cytometry)", "format": "cell-based, human", "settings": "AUF 0.5 μg/mL", "description": "Tregs were defined as CD3+CD4+ FoxP3+. Directly after the treatment, TIL were stimulated for six hours with PMA/Ionomycin or autologous tumor cells and then stained for intracellular cytokines IL-10 (C) and TGFβ (D).\nLymphocytes were pre-treated for 18 h with Auranofin (AUF, with the concentration 1 μg/mL for NK cells and 0.5 μg/mL for TIL. As AUF was reconstituted in DMSO, control NK cells were pre-treated with DMSO with an equivalent volume to the highest compound concentration. For N-acetylcysteine (NAC, Invitrogen) treatment, DMSO pre-treated cells were incubated for 1 h with 5 or 10 mM NAC prior to H2O2 treatment. For H2O2 treatment, lymphocytes were washed and resuspended to 1×10^6 cells/mL in RPMI containing the indicated H2O2 (Sigma-Aldrich) concentration for 1 h at 37° C. 5% CO2. Cells were washed with medium and then used for further experiments.\nAll antibodies (see Table 1 in Example 1) and FACS reagents were used according to manufacturers' recommendation, if not stated otherwise. Cells were stained with LIVE/DEAD™ Fixable Aqua Dead Cell Stain Kit (Invitrogen) and then stained with the respective antibodies for 20 min at 4 °C in PBS 1% FBS. Intracellular staining was performed using Fixation/Permeabilization Kit (BD Biosciences) following the manufacturer's instructions. […]"}, "NK cells": {"test_system": "NK cells", "assay": "ADCC: NK cells with RAJI cells coated with Rituximab or Ofatumumab", "format": "cell-based, human", "description": "Lymphocytes were isolated and pre-treated when indicated, with compound and H2O2, as described above. For degranulation/measuring CD107a expression, NK cells were co-cultured with K562 tumour cells at an effector target ratio 1:1 in the presence of anti-CD107a in U-bottom plates. After 2 h, GolgiStop™ and GolgiPlug™ (BD Bioscience) were added and cells were harvested after an additional 4 h co-culture and stained for CD56 and CD3, as described above. For positive control, 25 ng/ml PMA (Sigma Aldrich) and 500 ng/mL Ionomycin (Sigma Aldrich) were added.\nFor cytotoxic assay, a standard 4 h [Cr^51]-release assay was used. Briefly, tumour cells were harvested and labeled with 51Cr (PerkinElmer) and used as target cells. Effector cells, NK cells and T cells, were co-cultured in 96-well V-bottom plate with indicated tumour cells at the stated effector target ratio (E:T). The supernatant was collected onto LUMA plates (Perkin-Elmer) and radioactivity/tumour cell lysis was detected by MicroBeta2 (Perkin Elmer). Target cell killing measured by % specific lysis and calculated using the formula: ((experimental release-spontaneous release)/(maximum release-spontaneous release))*100.\nFor analyzing ADCC, NK cells were cultured with RAJI cells and Rituximab (0.5 μg/mL, MabThera, Roche) or Ofatumumab (0.05 μg/mL, Arzerra, Novartis)."}, "[1]": {"settings": "upon addition of H2O2, vs control NK cells"}}, "note": "“Also recorded” adds a separate entry of the source."}
{"compound": "CC(=O)OC[C@H]1O[C@@H]([S-])[C@H](OC(C)=O)[C@@H](OC(C)=O)[C@@H]1OC(C)=O.CCP(CC)CC.[Au+]", "note": "[AUF, Auranofin]", "values": [{"measurement": "Frequency of CD4+ T cells after AUF pre-treatment", "setting": "KADA TIL", "value": "did not observe any increase"}, {"measurement": "Induction of regulatory T cells (CD3+CD4+FoxP3+)", "setting": "KADA TIL; 0 h or 72 h post pre-treatment", "value": "do not induce regulatory T cells; also recorded: no induction of regulatory T cells could be detected"}, {"measurement": "Ability of NK cells to degranulate in response to anti-CD20 coated RAJI cells", "setting": "NK cells; [1]", "value": "significant increase"}, {"measurement": "Ability of NK cells to lyse anti-CD20 coated RAJI cells", "setting": "NK cells; [1]", "value": "significant increase"}, {"measurement": "Capacity of NK cells to recognize anti-CD20 coated RAJI cells", "setting": "NK cells; without the presence of ROS", "value": "increased capacity to recognize the anti-CD20 coated RAJI cells"}]}
